Results as given in the CheMixHub viscosity set.

Experiment: xn = mol fraction of the nth substance listed
Settings: 303.15 K, 101 kPa

CN(C)c1ccccc1 + CCCCO
Settings	viscosity [mPa·s]
x1 = 0.0489	2.2
x1 = 0.0742	2.187
x1 = 0.1249	2.156
x1 = 0.1802	2.12
x1 = 0.2362	2.079
x1 = 0.265	2.056
x1 = 0.2944	2.032
x1 = 0.3549	1.978
x1 = 0.419	1.915
x1 = 0.4854	1.844
x1 = 0.5905	1.722
x1 = 0.7423	1.526
x1 = 0.9099	1.295

CN(C)c1ccccc1 + CC(C)O
Settings	viscosity [mPa·s]
x1 = 0.0564	1.727
x1 = 0.1136	1.655
x1 = 0.1989	1.56
x1 = 0.2689	1.492
x1 = 0.3245	1.439
x1 = 0.3767	1.401
x1 = 0.4258	1.369
x1 = 0.4878	1.33
x1 = 0.5655	1.288
x1 = 0.6305	1.259
x1 = 0.7385	1.22
x1 = 0.8187	1.199
x1 = 0.9243	1.18
